In patent US8178506B2, “Oligomeric compounds and compositions for use in modulation of small non-coding RNAs” (Regulus Therapeutics Inc., priority 2003, dated 2012):
In the oligonucleotide strings, read from the 5' end, every base follows the letter of its sugar. An asterisk marks phosphorothioate; unmarked linkages are phosphodiester. Other units and linkages are bracketed, terminal groups are in braces. A string of capitals states the bases alone. e = 2'-O-(2-methoxyethyl) (MOE); [5mC] = 5-methylcytosine

Experiments:
[1] = tested on: adipocytes; experiment: Triglyceride accumulation assay in adipocytes; format: cell-based, human
[2] = tested on: aP2; experiment: aP2 mRNA expression in adipocytes (real-time PCR); format: cell-based, human; settings: for AP2 (mRNA expression): adipocytes, 250 nM oligomeric compound, day nine post-transfection, relative to control (1.0), Table 15; for aP2 mRNA: Table 75
[3] = tested on: HSL; experiment: HSL mRNA expression in adipocytes (real-time PCR); format: cell-based, human; settings: for HSL (mRNA expression): adipocytes, 250 nM oligomeric compound, day nine post-transfection, relative to control (1.0), Table 15; for HSL mRNA: differentiating adipocytes transfected with oligomeric compound
[4] = tested on: Glut4; experiment: Glut4 mRNA expression in adipocytes (real-time PCR); format: cell-based, human; settings: for Glut4 (mRNA expression): adipocytes, 250 nM oligomeric compound, day nine post-transfection, relative to control (1.0), Table 15; for GLUT4 mRNA: differentiating adipocytes transfected with oligomeric compound
[5] = tested on: PPARγ; experiment: PPARγ mRNA expression in adipocytes (real-time PCR); format: cell-based, human; settings: for PPAR gamma (mRNA expression): adipocytes, 250 nM oligomeric compound, day nine post-transfection, relative to control (1.0), Table 15; for PPAR gamma mRNA: differentiating adipocytes transfected with oligomeric compound
[6] = tested on: HuVECs; experiment: Endothelial tube formation assay in HuVECs; settings: 75 nM oligomeric compound, Table 56
[7] = adipocytes, 250 nM oligomeric compound, relative to control (1.0), Table 15
[8] = differentiating adipocytes transfected with oligomeric compound
[9] = differentiating adipocytes transfected with oligomeric compound, Table 75

Row | Substance | TG (triglyceride accumulation) [1, 7] | AP2 (mRNA expression) [2] | HSL (mRNA expression) [3] | Glut4 (mRNA expression) [4] | PPAR gamma (mRNA expression) [5] | % Activity Relative to UTC (tube formation) [6] [%] | TG (triglyceride accumulation) [1, 8] | AP2 mRNA [2, 8] | HSL mRNA [3] | GLUT4 mRNA [4] | PPAR gamma mRNA [5] | TG (triglyceride accumulation) [1, 9] | aP2 mRNA [2, 8] | HSL mRNA ([3]; Table 75) | GLUT4 mRNA ([4]; Table 75) | PPAR gamma mRNA ([5]; Table 75)
1 | 327876 (antisense eA*eA*e[5mC]*eA*e[5mC]*eT*eG*eA*eT*eT*eT*e[5mC]*eA*eA*eA*eT*eG*eG*eT*eG*e[5mC]*eT*eA) [compound 327876] | 0.47 | 0.75 | 0.47 | 0.36 | 0.57 | 50.0 |  |  |  |  |  |  |  |  |  | 
2 | 327877 (antisense e[5mC]*eG*e[5mC]*e[5mC]*eA*eA*eT*eA*eT*eT*eT*eA*e[5mC]*eG*eT*eG*e[5mC]*eT*eG*e[5mC]*eT*eA) [compound 327877] |  |  |  |  |  | 78.6 | 109 percentage of untreated control (UTC) | 77 percentage of untreated control (UTC) | 82 percentage of untreated control (UTC) | 119 percentage of untreated control (UTC) | 85 percentage of untreated control (UTC) |  |  |  |  | 
3 | 327878 (antisense e[5mC]*eT*eA*eG*eT*eG*eG*eT*e[5mC]*e[5mC]*eT*eA*eA*eA*e[5mC]*eA*eT*eT*eT*e[5mC]*eA*e[5mC]) [compound 327878] | 0.65 | 0.85 | 0.93 | 0.69 | 0.97 | 57.1 |  |  |  |  |  |  |  |  |  | 
4 | 327880 (antisense eA*e[5mC]*eA*eA*eA*eT*eT*e[5mC]*eG*eG*eT*eT*e[5mC]*eT*eA*e[5mC]*eA*eG*eG*eG*eT*eA) [compound 327880] | 0.52 | 0.97 | 0.80 | 1.11 | 0.53 | 57.1 |  |  |  |  |  |  |  |  |  | 
5 | 327885 (antisense eA*e[5mC]*eT*eA*e[5mC]*e[5mC]*eT*eG*e[5mC]*eA*e[5mC]*eT*eG*eT*eA*eA*eG*e[5mC]*eA*e[5mC]*eT*eT*eT*eG) [compound 327885] |  |  |  |  |  | 50.0 |  |  |  |  |  | 29 percentage of untreated control (UTC) | 69 percentage of untreated control (UTC) | 57 percentage of untreated control (UTC) | 40 percentage of untreated control (UTC) | 59 percentage of untreated control (UTC)
6 | 327886 (antisense e[5mC]*eG*e[5mC]*eG*eT*eA*e[5mC]*e[5mC]*eA*eA*eA*eA*eG*eT*eA*eA*eT*eA*eA*eT*eG) [compound 327886] |  |  |  |  |  | 42.9 |  |  |  |  |  | 12 percentage of untreated control (UTC) | 19 percentage of untreated control (UTC) | 22 percentage of untreated control (UTC) | 13 percentage of untreated control (UTC) | 25 percentage of untreated control (UTC)
7 | 327887 (antisense eG*e[5mC]*eG*eA*e[5mC]*e[5mC]*eA*eT*eG*eG*e[5mC]*eT*eG*eT*eA*eG*eA*e[5mC]*eT*eG*eT*eT*eA) [compound 327887] |  |  |  |  |  | 57.1 |  |  |  |  |  | 54 percentage of untreated control (UTC) | 60 percentage of untreated control (UTC) | 53 percentage of untreated control (UTC) | 43 percentage of untreated control (UTC) | 81 percentage of untreated control (UTC)
